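Method: 48-hour compound exposure of cells in 96-well plates, five concentrations, linear interpolation of endpoints. TGI: total growth inhibition.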
Tests used:
Experiment in all cases: NCI-60 cell line screen, 48 h
KM20L2 colon = system: KM20L2 colon
DMS 273 small cell lung = system: DMS 273 small cell lung
HOP-18 NSCLC = system: HOP-18 NSCLC
IGROV1 ovarian = system: IGROV1 ovarian
DLD-1 colon = system: DLD-1 colon
DMS 114 small cell lung = system: DMS 114 small cell lung
HL-60(TB) leukemia = system: HL-60(TB) leukemia
M19-MEL melanoma = system: M19-MEL melanoma
786-0 renal = system: 786-0 renal
SK-MEL-28 melanoma = system: SK-MEL-28 melanoma
KM12 colon = system: KM12 colon
LXFL 529 NSCLC = system: LXFL 529 NSCLC

SMILES | TGI (KM20L2 colon) [µM] | TGI (DMS 273 small cell lung) [µM] | TGI (HOP-18 NSCLC) [µM] | TGI (IGROV1 ovarian) [µM] | TGI (DLD-1 colon) [µM] | TGI (DMS 114 small cell lung) [µM] | TGI (HL-60(TB) leukemia) [µM] | TGI (M19-MEL melanoma) [µM] | TGI (786-0 renal) [µM] | TGI (SK-MEL-28 melanoma) [µM] | TGI (KM12 colon) [µM] | TGI (LXFL 529 NSCLC) [µM]
CCCCCCCSCC1C(=O)C23C(O)C1CCC2C12COC3(O)C(O)C1C(C)(C)CCC2O (stereo not given) | 25 | 27.3 | 25 | 36.2 | 30 | 23.1 | 16.3 | 31.6 | 26.7 | 22.7 | 23.9 | 6.88
COC1=CC(=O)[C@]2(C)[C@H](C1=O)C(C)[C@H]2c1ccccc1 (stereo not given in full) |  | > 100 |  | > 100 | > 100 |  | > 100 | > 100 | > 100 | > 100 | > 100 | > 100
ClCc1ccc2ccc3ccc(CCl)nc3c2n1 | 12 |  | 8.77 | 3.48 | 2.89 | 4.26 | 4.43 | 3.97 |  | 4 | 2.32 | 
O=C1c2c(nc3ccccc3c2-c2ccccc2)CN1Nc1ccccc1 | > 100 |  |  | > 100 | > 100 | > 100 | > 100 | > 100 | > 100 |  | > 100 | > 100
C/C(=N\O)C(CN1CCCCC1)C(c1ccccc1)c1c(O)c2ccccc2oc1=O (stereo not given) | > 100 |  |  | > 100 | > 100 | > 100 | > 10 | > 100 | > 100 | > 100 |  | > 100
N#CN1CCC=C(c2cc3ccccc3[nH]2)C1 | > 448 | > 448 | > 448 | > 448 | > 448 |  | > 448 | > 448 | > 448 | > 448 | > 448 | > 448
Cc1ccc(S(=O)(=O)c2c3[nH]c4ccccc4nc3n3c2nc2ccccc23)cc1 | > 100 | > 100 |  | > 100 | > 100 | > 100 | > 100 | > 100 | > 100 | > 100 | > 100 | > 100
CC1=NN(C(=O)c2ccc(Cl)cc2)C(=O)/C1=C/c1ccc(O)cc1 | > 100 |  |  | > 100 | > 100 | > 100 | > 100 | > 100 | > 100 | > 100 | > 100 | > 100
